Data set [1] relates to Human Umbilical Vein Endothelial Cells (HUVEC). Briefly: Suppression of endothelial cell proliferation, separate and combined use (equivalent curve / response surface method). The class given is cell-based. Particulars: separate use. From the text: Human Umbilical Vein Endothelial Cells (HUVEC) were employed in the experiment and the suppression rate on endothelial cell proliferation were monitored. Classical methods including equivalent curve method and the response surface method were used and the amount-effect curves were plotted.

The nature of data set [2]: LC-DAD-MS analysis of ingredients in rat plasma after oral administration of QLY decoction. Conditions: 20 minutes after oral administration of QLY decoction.
Source text: Liquid chromatography simultaneously coupled with a diode array detector and a mass spectrometry detector (LC-DAD-MS) was used to analyze the pharmaceutical ingredients in rat plasma at different time points after oral administration of QLY decoction in order to determine the ingredients in QLY that could be absorbed into the body through metabolism. In this experiment, performed were comparison analyses of chromatogram and mass spectrum of QLY decoction and those of decoction of each of the constituent herbs of QLY, comparison analyses of chromatogram and mass spectrum of QLY decoction and those of QLY decoction plus blank plasma, comparison analyses of chromatogram and mass spectrum of blank plasma and those of post-administration plasma (blood sample taken at 20 min, 1 h, and 2 h respectively after oral administration of QLY decoction).

“Also recorded” adds a separate entry of the source. Where a name gives a salt, the structure may show the parent alone.

As to `O=C1CCCC2C3CCCN4CCCC(CN12)C34` (stereo not drawn) [matrine, Matrine], the “effect on suppressing proliferation of endothelial cells (anti-angiogenesis activity)” value in data set [1] is reported as “relatively strong; also recorded: remarkable effect”. The “detected in plasma of rats after oral administration of QLY” value (from here on “detected in plasma of rats”) in data set [2] is recorded as “detected”.
Consider `COC1=CC2C3Cc4ccc(OC)c(O)c4[C@]2(CCN3C)CC1=O` (stereo partly drawn) [sinomenine, Sinomenine], for which the “detected in plasma of rats” value in data set [2] is “detected”.
`CN1C[C@@H]2C[C@H](C1)c1cccc(=O)n1C2` [N-methylcytisine]: the “detected in plasma of rats” value in data set [2] is “small amounts”.
The same measure, in the same setting: the value for `O=C1C=CC[C@@H]2[C@H]3CCCN4CCC[C@@H](CN12)[C@@H]34` [sophocarpine] was “small amounts”.
Turning to `COC1=C[C@@H]2[C@@H]3Cc4ccc(OC)c(O)c4[C@]2(CCN3C)CC1=O` [sinomenine hydrochloride], in data set [1] (hydrochloride), the “effect on suppressing proliferation of endothelial cells (anti-angiogenesis activity)” value is “relatively strong; also recorded: remarkable effect”.

The values above are taken from patent publication US20080108642A1 (Tsinghua University, priority 2006, published 2008).
